Measured values: patent publication US8802597B2, “Herbicidal pyrimidines” (E I du Pont de Nemours and Company, priority 2003, dated 2014)
Where two headings read alike, the source gives them in different places.

Columns and labels:
Experiment in all cases: Test C pre/postemergence
Format in all cases: in vivo
[1] = system: giant foxtail (Setaria faberii); settings: Setaria faberi, pre-emergence, Preemergence, scale 0 to 100, read-out: Plant response rating, Foxtail, Giant
Text: (§1) Seeds or nutlets of plant species selected from bermudagrass (Cynodon dactylon), Surinam grass (Brachiaria decumbens), cocklebur (Xanthium strumarium), corn (Zea mays), crabgrass (Digitaria sanguinalis), woolly cupgrass (Eriochloa villosa), giant foxtail (Setaria faberii), goosegrass (Eleusine indica), johnsongrass (Sorghum halepense), kochia (Kochia scoparia), lambsquarters (Chenopodium album), morningglory (Ipomoea coccinea), eastern black nightshade (Solanum ptycanthum), yellow nutsedge (Cyperus esculentus), pigweed (Amaranthus retroflexus), common ragweed (Ambrosia elatior), soybean (Glycine max), common (oilseed) sunflower (Helianthus annuus), and velvetleaf (Abutilon theophrasti) were planted and treated preemergence with test chemicals formulated in a non-phytotoxic solvent mixture which included a surfactant.
(§2) At the same time, plants selected from these crop and weed species and also winter barley (Hordeum vulgare), blackgrass (Alopecurus myosuroides), canarygrass (Phalaris minor), chickweed (Stellaria media), downy brome (Bromus tectorum), green foxtail (Setaria viridis), Italian ryegrass (Lolium multiflorum), wheat (Triticum aestivum), wild oat (Avena fatua) and windgrass (Apera spica-venti) were treated with postemergence applications of some of the test chemicals formulated in the same manner. Plants ranged in height from 2 to 18 cm (1- to 4-leaf stage) for postemergence treatments. Plant species in the flooded paddy test consisted of rice (Oryza sativa), umbrella sedge (Cyperus difformis), duck salad (Heteranthera limosa) and barnyardgrass (Echinochloa crus-galli) grown to the 2-leaf stage for testing. Treated plants and controls were maintained in a greenhouse for 12 to 14 days, after which time all species were compared to controls and visually evaluated. Plant response ratings, summarized in Table C, are based on a scale of 0 to 100 where 0 is no effect and 100 is complete control. A dash (-) response means no test result.

[2] = system: johnsongrass (Sorghum halepense); settings: Sorghum halepense; for pest or weed control at 31 g/ha: 31 g ai/ha; for pest or weed control at 62 g/ha: 62 g ai/ha; for pest or weed control at 125 g/ha: 125 g ai/ha; for pest or weed control at 250 g/ha: 250 g ai/ha
Text: as §1, §2

kochia (Kochia scoparia) = settings: Bassia scoparia; for pest or weed control at 31 g/ha: 31 g ai/ha; for pest or weed control at 62 g/ha: 62 g ai/ha; for pest or weed control at 125 g/ha: 125 g ai/ha; for pest or weed control at 250 g/ha: 250 g ai/ha
Text: as §1, §2

[3] = system: lambsquarters (Chenopodium album); settings: Chenopodium album; for pest or weed control at 31 g/ha: 31 g ai/ha; for pest or weed control at 62 g/ha: 62 g ai/ha; for pest or weed control at 125 g/ha: 125 g ai/ha; for pest or weed control at 250 g/ha: 250 g ai/ha
Text: as §1, §2

[4] = system: morningglory (Ipomoea coccinea); settings: Ipomoea; for pest or weed control at 31 g/ha: 31 g ai/ha; for pest or weed control at 62 g/ha: 62 g ai/ha; for pest or weed control at 125 g/ha: 125 g ai/ha; for pest or weed control at 250 g/ha: 250 g ai/ha
Text: as §1, §2

soybean (Glycine max) = settings: Glycine max; for plant injury at 31 g/ha: 31 g ai/ha; for plant injury at 62 g/ha: 62 g ai/ha; for plant injury at 125 g/ha: 125 g ai/ha; for plant injury at 250 g/ha: 250 g ai/ha
Text: as §1, §2

[5] = post-emergence, Postemergence, scale 0 to 100 (0 no effect, 100 complete control), read-out: Johnsongrass plant response rating
[6] = pre-emergence, Preemergence, scale 0 to 100, 0 no effect, 100 complete control, read-out: Plant response rating, Johnsongrass
[7] = pre-emergence, Preemergence, scale 0 to 100, read-out: Plant response rating, Johnsongrass
[8] = post-emergence, Postemergence, scale 0 to 100 (0 no effect, 100 complete control), read-out: Kochia plant response rating
[9] = pre-emergence, Preemergence, scale 0 to 100, 0 no effect, 100 complete control, read-out: Plant response rating, Kochia
[10] = pre-emergence, Preemergence, scale 0 to 100, read-out: Plant response rating, Kochia
[11] = post-emergence, Postemergence, scale 0 to 100 (0 no effect, 100 complete control), read-out: Lambsquarters plant response rating
[12] = pre-emergence, Preemergence, scale 0 to 100, 0 no effect, 100 complete control, read-out: Plant response rating, Lambsquarters
[13] = pre-emergence, Preemergence, scale 0 to 100, read-out: Plant response rating, Lambsquarters
[14] = post-emergence, Postemergence, scale 0 to 100 (0 no effect, 100 complete control), read-out: Morningglory plant response rating
[15] = pre-emergence, Preemergence, scale 0 to 100, 0 no effect, 100 complete control, read-out: Plant response rating, Morningglory
[16] = pre-emergence, Preemergence, scale 0 to 100, read-out: Plant response rating, Morningglory
[17] = post-emergence, Postemergence, scale 0 to 100 (0 no effect, 100 complete control), read-out: Soybean plant response rating
[18] = pre-emergence, Preemergence, scale 0 to 100, 0 no effect, 100 complete control, read-out: Plant response rating, Soybean
[19] = pre-emergence, Preemergence, scale 0 to 100, read-out: Plant response rating, Soybean

Compound COC(=O)c1nc(C2CC2)nc(N)c1Cl [Compound 9, methyl 6-amino-5-chloro-2-cyclopropyl-4-pyrimidinecarboxylate] has a pest or weed control at 125 g/ha ([1]; 125 g ai/ha) of 75%, a pest or weed control at 250 g/ha ([1]; 250 g ai/ha) of 80% and a pest or weed control at 31 g/ha ([2]; post-emergence, Postemergence, read-out: Plant response rating (scale of 0 to 100), Johnsongrass) of 55%. It also gave a pest or weed control at 62 g/ha [2, 5] of 65%, a pest or weed control at 125 g/ha [2, 5] of 80% and a pest or weed control at 250 g/ha ([2]; post-emergence, Postemergence, scale 0 to 100, read-out: Plant response rating, Johnsongrass) of 85%. It also gave a pest or weed control at 31 g/ha [2, 6] of 15%, a pest or weed control at 62 g/ha [2, 6] of 45% and a pest or weed control at 125 g/ha [2, 7] of 65%. It also gave a pest or weed control at 250 g/ha [2, 7] of 90%, a pest or weed control at 31 g/ha (kochia (Kochia scoparia); post-emergence, Postemergence, read-out: Plant response rating (scale of 0 to 100), Kochia) of 95% and a pest or weed control at 62 g/ha (kochia (Kochia scoparia); [8]) of 100%. The pest or weed control at 125 g/ha (kochia (Kochia scoparia); [8]) was 100%, the pest or weed control at 250 g/ha (kochia (Kochia scoparia); post-emergence, Postemergence, scale 0 to 100, read-out: Plant response rating, Kochia) was 100% and the pest or weed control at 31 g/ha (kochia (Kochia scoparia); [9]) was 95%. The pest or weed control at 62 g/ha (kochia (Kochia scoparia); [9]) was 95%, the pest or weed control at 125 g/ha (kochia (Kochia scoparia); [10]) was 100% and the pest or weed control at 250 g/ha (kochia (Kochia scoparia); [10]) was 100%. It also gave a pest or weed control at 31 g/ha ([3]; post-emergence, Postemergence, read-out: Plant response rating (scale of 0 to 100), Lambsquarters) of 90%, a pest or weed control at 62 g/ha [3, 11] of 95% and a pest or weed control at 125 g/ha [3, 11] of 100%. It also gave a pest or weed control at 250 g/ha ([3]; post-emergence, Postemergence, scale 0 to 100, read-out: Plant response rating, Lambsquarters) of 100%, a pest or weed control at 31 g/ha [3, 12] of 95% and a pest or weed control at 62 g/ha [3, 12] of 100%. It also gave a pest or weed control at 125 g/ha [3, 13] of 100%, a pest or weed control at 250 g/ha [3, 13] of 100% and a pest or weed control at 31 g/ha ([4]; post-emergence, Postemergence, read-out: Plant response rating (scale of 0 to 100), Morningglory) of 90%. The pest or weed control at 62 g/ha [4, 14] was 95%, the pest or weed control at 125 g/ha [4, 14] was 100% and the pest or weed control at 250 g/ha ([4]; post-emergence, Postemergence, scale 0 to 100, read-out: Plant response rating, Morningglory) was 100%. For the same compound, the pest or weed control at 31 g/ha [4, 15] was 100%, the pest or weed control at 62 g/ha [4, 15] was 100% and the pest or weed control at 125 g/ha [4, 16] was 100%. The pest or weed control at 250 g/ha [4, 16] was 100%, the plant injury at 31 g/ha (soybean (Glycine max); post-emergence, Postemergence, read-out: Plant response rating (scale of 0 to 100), Soybean) was 95% and the plant injury at 62 g/ha (soybean (Glycine max); [17]) was 100%. It also gave a plant injury at 125 g/ha (soybean (Glycine max); [17]) of 100%, a plant injury at 250 g/ha (soybean (Glycine max); post-emergence, Postemergence, scale 0 to 100, read-out: Plant response rating, Soybean) of 100% and a plant injury at 31 g/ha (soybean (Glycine max); [18]) of 100%. For the same compound, the plant injury at 62 g/ha (soybean (Glycine max); [18]) was 100%, the plant injury at 125 g/ha (soybean (Glycine max); [19]) was 100% and the plant injury at 250 g/ha (soybean (Glycine max); [19]) was 100%.
